According to the supplement of paper PMC10307832:

How the values were obtained:
Assay in all cases: relative viability (nuclei count vs DMSO), 5 days (fraction); higher = more cells survive
[1] = compound: CC1=CC(=CC=C1)NC2=NC(=CS2)C3=CC=NC=C3 + Nc1ncn([C@H]2C[C@H](O)[C@@H](CO)O2)c(=O)n1 [Decitabine] (partner 2 µM)
Outline: (§1)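 A single step with final 0.05% Triton X-100, 1% formaldehyde and 1 ug/ml Hoechst fixed the cells and stained nuclei 5 days after treatment. Lung cancer cell lines in 1536-well plates had been treated by pin tool the day after seeding with one drug alone or a fixed anchor-drug dose plus five library-drug doses (not always all listed) in √10 steps, and nuclei were counted on 4× images. Relative viability is the ratio of nuclei in treated wells to nuclei in vehicle wells, taken as the median of duplicate plates.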

Masitinib + AZD7762 = compound: Cc1ccc(NC(=O)c2ccc(CN3CCN(C)CC3)cc2)cc1Nc1nc(-c2cccnc2)cs1 [Masitinib] + NC(=O)Nc1cc(-c2cccc(F)c2)sc1C(=O)N[C@H]1CCCNC1 [AZD7762] (partner 0.2 µM)
Outline: as §1

Masitinib + Trametinib = compound: Cc1ccc(NC(=O)c2ccc(CN3CCN(C)CC3)cc2)cc1Nc1nc(-c2cccnc2)cs1 [Masitinib] + CC(=O)Nc1cccc(-n2c(=O)n(C3CC3)c(=O)c3c(Nc4ccc(I)cc4F)n(C)c(=O)c(C)c32)c1 [Trametinib] (partner 0.02 µM)
Outline: as §1

[2] = compound: CC1=CC(=CC=C1)NC2=NC(=CS2)C3=CC=NC=C3 + CS(=O)(=O)N1CCN(Cc2cc3nc(-c4cccc5[nH]ncc45)nc(N4CCOCC4)c3s2)CC1 [Pictilisib] (partner 1 µM)
Outline: as §1

| Cell Line | relative viability ([1]; first compound 0.08 µM) | relative viability ([1]; first compound 0.253 µM) | relative viability ([1]; first compound 0.8 µM) | relative viability ([1]; first compound 2.53 µM) | relative viability ([1]; first compound 8 µM) | relative viability (Masitinib + AZD7762; first compound 0.01 µM) | relative viability (Masitinib + AZD7762; first compound 0.03162 µM) | relative viability (Masitinib + AZD7762; first compound 0.1 µM) | relative viability (Masitinib + AZD7762; first compound 0.3162 µM) | relative viability (Masitinib + AZD7762; first compound 1 µM) | relative viability (Masitinib + Trametinib; first compound 0.01 µM) | relative viability (Masitinib + Trametinib; first compound 0.03162 µM) | relative viability (Masitinib + Trametinib; first compound 0.1 µM) | relative viability (Masitinib + Trametinib; first compound 0.3162 µM) | relative viability (Masitinib + Trametinib; first compound 1 µM) | relative viability ([2]; first compound 0.08 µM) | relative viability ([2]; first compound 0.253 µM) | relative viability ([2]; first compound 0.8 µM) | relative viability ([2]; first compound 2.53 µM) | relative viability ([2]; first compound 8 µM) |
| --- | --- | --- | --- | --- | --- | --- | --- | --- | --- | --- | --- | --- | --- | --- | --- | --- | --- | --- | --- | --- |
| 201T | 0.898 | 0.904 | 0.909 | 0.937 | 0.827 | 0.516 | 0.7 | 0.528 | 0.64 | 0.573 | 0.599 | 0.712 | 0.628 | 0.745 | 0.719 | 0.547 | 0.537 | 0.598 | 0.565 | 0.602 |
| A549 | 0.281 | 0.173 | 0.284 | 0.275 | 0.256 | – | – | – | – | – | – | – | – | – | – | 0.399 | 0.472 | 0.524 | 0.525 | 0.418 |
| A-427 | 0.558 | 0.544 | 0.547 | 0.548 | 0.546 | 0.775 | 0.657 | 0.689 | 0.744 | 0.559 | 0.623 | 0.74 | 0.842 | 0.75 | 0.676 | 0.633 | 0.71 | 0.692 | – | 0.655 |
| ABC-1 | 1.01 | – | 1.23 | 0.933 | 0.626 | 0.711 | 0.901 | 0.743 | 0.493 | 0.801 | – | – | – | – | – | 0.48 | 0.665 | 0.686 | 0.634 | 0.486 |
| BEN | 0.636 | 0.687 | 0.772 | 0.588 | 0.781 | 0.849 | 0.64 | 0.882 | 0.607 | 0.77 | 1.15 | 0.964 | 1.13 | 1.11 | 1.09 | 0.543 | 0.528 | 0.585 | 0.446 | 0.543 |
| CAL-12T | – | – | – | – | – | 0.586 | 0.639 | 0.606 | 0.605 | 0.498 | 0.374 | 0.347 | 0.325 | 0.307 | 0.419 | 0.286 | – | 0.557 | 0.261 | 0.388 |
| COR-L23 | 0.404 | 0.378 | 0.429 | 0.379 | 0.388 | – | – | – | – | – | 0.543 | 0.641 | 0.673 | 0.686 | 0.571 | 0.539 | 0.57 | 0.451 | 0.714 | 0.661 |
| COR-L 105 | 0.648 | 0.691 | 0.624 | 0.572 | 0.533 | – | – | – | – | – | 0.475 | 0.438 | 0.413 | 0.411 | 0.388 | 0.322 | 0.427 | 0.374 | 0.413 | 0.393 |
| Calu-6 | – | – | – | – | – | – | – | – | – | – | – | – | – | – | – | 0.796 | 0.718 | 0.659 | 0.815 | 0.803 |
| ChaGo-K-1 | 0.528 | 0.528 | 0.519 | 0.522 | 0.499 | 0.928 | 0.916 | 0.946 | 0.823 | 0.806 | 0.972 | 0.852 | 0.986 | 0.909 | 0.906 | 0.697 | 0.447 | 0.691 | 0.36 | 0.639 |
| EBC-1 | – | – | – | – | – | – | – | – | – | – | – | – | – | – | – | 0.187 | 0.216 | 0.236 | 0.303 | 0.211 |
| EKVX | 0.289 | 0.397 | – | 0.356 | 0.316 | 0.783 | 0.824 | 0.71 | – | 0.637 | 0.38 | 0.27 | 0.353 | – | 0.249 | 0.374 | 0.391 | 0.344 | 0.32 | 0.346 |
| EMC-BAC-2 | 0.916 | – | 0.91 | 0.918 | 0.884 | 0.862 | 1.01 | 1.03 | 1.05 | 1.01 | 0.576 | – | 0.705 | 0.806 | 0.821 | 0.449 | 0.496 | 0.53 | 0.48 | 0.554 |
| EPLC-272H | 0.339 | 0.37 | 0.348 | – | 0.352 | 0.245 | 0.206 | 0.211 | 0.258 | 0.161 | 0.28 | 0.35 | 0.376 | 0.268 | 0.237 | 0.265 | – | 0.292 | – | 0.344 |
| H3255 | 0.576 | 0.506 | 0.581 | 0.601 | 0.553 | 0.581 | 0.948 | 0.764 | 0.705 | 0.885 | 0.471 | 0.619 | 0.499 | 0.565 | 0.582 | 0.535 | 0.552 | 0.542 | 0.526 | 0.408 |
| HARA | 0.508 | 0.438 | 0.539 | 0.48 | 0.664 | 0.444 | 0.267 | 0.216 | – | 0.143 | 0.767 | 0.627 | 0.946 | – | 0.897 | 0.343 | 0.354 | 0.367 | 0.21 | 0.374 |
| HCC-15 | 0.621 | 0.662 | 0.58 | 0.582 | 0.625 | 0.794 | 1.04 | 1.02 | 0.422 | 1.24 | 0.364 | 0.373 | 0.389 | 0.234 | 0.354 | 0.644 | 0.665 | 0.684 | 0.692 | 0.701 |
| HCC-44 | 0.88 | 0.788 | 0.834 | 0.767 | 0.826 | 0.834 | 0.99 | 1.02 | 0.958 | 1.04 | 0.811 | 1.04 | 0.989 | 0.853 | 1.07 | 0.423 | 0.429 | 0.462 | 0.485 | 0.486 |
| HCC-78 | 0.727 | 0.613 | 0.614 | 0.613 | 0.661 | 0.509 | 0.524 | 0.71 | 0.454 | 0.572 | 0.509 | 0.787 | 0.746 | 0.745 | 0.65 | 0.204 | 0.198 | 0.261 | 0.219 | 0.22 |
| HCC-366 | 0.329 | 0.357 | 0.308 | 0.309 | 0.263 | – | 0.226 | 0.256 | 0.203 | 0.188 | – | 0.275 | 0.407 | 0.333 | 0.34 | 0.146 | 0.11 | 0.132 | 0.157 | 0.121 |
